Measurements reported in patent US9037230B2, “Method and device for treating microscopic tumors remaining in tissues following surgical resection” (OncoSec Medical Incorporated, priority 2006, dated 2015).

Key:
[1] = Breaking strength of healing skin incisions in swine after Bleomycin with or without electroporation; format: in vivo
Experimental: (§1) In this experiment eighteen transcutaneous incisions were made into the dorsal muscles in each of eight pig test animals grouped 1-6. In study groups 1-5, longitudinal incisions were made while in group 6 the incisions were transverse to the longitudinal orientation of the muscle fiber. At each incision site, either nothing, normal saline, or Bleomycin in solution was injected such that injections were placed to a 1 cm depth and spaced at 1 cm distances from one another with three injections, one on each side of each incision within 3 cm of each other and one in the center of the incision. Bleomycin, an anti-cancer agent, was used wherein each injection consisted of 0.125 ml (4 units/ml saline). The incisions were then treated with bipolar pulses of 530 V, 100 μsec each, from a pulse generator using a 6-needle electrode array of 0.5 cm diameter (nominal field strength for each pulse was 1,233 V/cm).
(§2) Specifically, 8 male Yorkshire/Hampshire cross swine (40-50 kg) were acclimated 5-7 days prior to surgery. Incision locations were marked on the dorsum using sterile surgical markers. Each incision was 5 cm long and made to a depth of 5 mm into the muscle. All animals in groups 1-5 received 18 longitudinal incisions each, while animals in group 6 received transverse incisions, in accordance with Table I. Each study group comprised 24 incisions.
Injections of a total volume of 1.5 ml of saline or Bleomycin (6 U) were administered at 12 sites per incision, 6 in the muscle and 6 in the skin. Incisions treated with electroporation were electroporated using a 0.5 cm diameter, 1.5 cm long needle array. On each side of the muscle incision, electroporation was given 3 times in the central 3 cm of the incision, each electroporation site being 1 cm apart from the other. Skin was not electroporated. The epimysium was closed with 4-0 Vicryl absorbable interrupted sutures. The skin was closed with 4-0 nylon interrupted sutures. Swine were sacrificed at 2 d, 1 wk, 2 wks, or 3 wks following surgery. Histology specimens containing skin and at least 5 mm depth of underlying muscle were taken from the center of the incision and immediately placed in 10% neutral buffered formalin. An additional control specimen was taken from non-incised skin on the dorsum. After staining and sectioning, skin, subcutaneous tissue, and muscle were graded histologically on a 0-3 scale using the following parameters: Healing, Granulations/Fibrosis, PMN's, Lymphocytes, Histiocytes, Necrosis, Hemorrhage and Atypical Cells.
Mechanical testing was performed on strips of skin removed from the center of the incision at three different time points, namely, Days 7, 14, and 21. […] Breaking strength was determined by plotting the […] versus the strain for each incision up to the breaking point. […]

[2] = Histological evaluation of incision healing (skin, subcutaneous tissue, muscle) in swine; format: in vivo
Experimental: as §1, §2
Injections of a total volume of 1.5 ml of saline or Bleomycin (6 U) were administered at 12 sites per incision, 6 in the muscle and 6 in the skin. Incisions treated with electroporation were electroporated using a 0.5 cm diameter, 1.5 cm long needle array. On each side of the muscle incision, electroporation was given 3 times in the central 3 cm of the incision, each electroporation site being 1 cm apart from the other. Skin was not electroporated. The epimysium was closed with 4-0 Vicryl absorbable interrupted sutures. The skin was closed with 4-0 nylon interrupted sutures. Swine were sacrificed at 2 d, 1 wk, 2 wks, or 3 wks following surgery. […]

[3] = system: HT-29 human colon carcinoma cells; assay: Tumor recurrence after surgery and Bleomycin electroporation therapy (EPT) in nude mice with HT-29 tumors; format: in vivo; conditions: for % efficacy (animals that did NOT experience tumor growth post treatment): three weeks after treatment
Experimental: In this example, a series of experiments were performed in mice wherein tumor recurrence rates were determined after surgery alone or after surgery and EPT. Specifically, this experiment comprises an in vivo study to establish the efficacy of EPT on surgical margin treatment in nude mice after subcutaneous introduction of HT-29 human colon carcinoma cells and resection of the tumors that arise from such introduction. The experiment was conducted under humane conditions with respect to treatment of the test animals.
The experimental design was as follows. Normal Athymic Nude female mice 4-6 weeks of age were placed in 8 groups of six mice each, except for Group 1 which comprised 10 animals and Group 3 comprising 7 animals. The HT-29 cell line is derived from a human colon carcinoma and is an aggressive fast-growing tumor in mice. In each group the animals received HT-29 human tumor cells in the form of two adjacent inocula of 5×10^6 cells using a 21 gauge needle and syringe. The HT-29 cell line was obtained from […] (#HTB-38), grown in McCoy's 5a medium (modified) with 1.5 mM L-glutamine adjusted to contain 2.2 g/L sodium bicarbonate, 90%, and fetal bovine serum, 10%. Cells were divided 1:2 to 1:4 on growth cycles until sufficient cells were available to use in this experiment.
Following inoculation the tumors became established at the site of the inoculations. The tumor volume on each animal was monitored regularly and calculated using the formula: Tumor volume=(a^2×b/2) where ‘a’ is the smallest diameter and ‘b’ is the largest diameter perpendicular to ‘a’. Tumors were measured three times per week starting from the day the tumors were palpable by hand. The tumors were allowed to progress until the size was between 500 and 1500 cubic millimeters. Surgical tumor removal, partial removal, or no removal was then performed in association with either EPT or no EPT. In these experiments EPT means treatment with Bleomycin and electroporation (EP). The EP, where performed, was conducted with one pulse cycle (i.e., 6 pulses at 4 Hz) per electrode insertion using a standard MedPulser generator (Genetronics, Inc. San Diego, Calif.) and an applicator with a disposable six needle array of 1 cm diameter, a distance between electrodes of 0.86 cm, and 1 cm needle length. […] The needle array was inserted percutaneously and essentially perpendicular to the surface of the flank of the mouse carrying the tumor. Alternatively, in those cases where the tumor was excised first, followed by i.v. injection of Bleomycin and then by EP, the needle electrode array was inserted percutaneously encompassing the surgical wound area (Groups 5-8).
Where Bleomycin was used in the experiment, it was injected at 4 U/ml saline (1U=1 mg) as uniformly as possible into tumor and margin tissues, as indicated, at a dose of 0.25 ml/cm^3 volume of tissue to be treated. Alternatively, where indicated, a corresponding amount of Bleomycin was injected into the tail vein.
The experiment used 8 cohorts of at least 6 mice each. Each cohort was subjected to a treatment regimen of a combination of any of EP, Bleomycin, saline instead of Bleomycin, complete tumor excision, partial tumor excision, and no tumor excision. Tables II and III disclose the treatment regimens.
For experiments on animals listed in Table II, the animals were anaesthetized, followed by removal or partial removal of the tumor as indicated, followed in turn by intraveneous (i.v.) injection of Bleomycin or saline. The Bleomycin dose was dependent on tumor size as described above. After 3 to 4 minutes, the animals indicated were treated with EP followed by closure of the wound with clips and surgical adhesive. In cohort 1, the entire tumor was surgically removed (see, for example FIGS. 12B and C) and the animals treated with Bleomycin and EP. In cohort 2, the tumors were removed from the animals but only saline was injected instead of Bleomycin and no EP was performed. […]

[4] = system: HT-29 human colon carcinoma cells; assay: Gross consistency of HT-29 tumors excised at various times after Bleomycin-EPT; format: in vivo, mice
Experimental: For this purpose, three additional cohort Groups 9, 10, and 11 were used.
The animals of Group 9 were anaesthetized followed by complete excision of the tumors. The tumors were examined for consistency and preserved in formalin for later histological evaluation, as were the tumor tissues of cohorts 10 and 11. Anaesthetized animals of cohort 10 were subjected to intratumoral administration of Bleomycin solution at a dose and volume as described above. EP was performed 10 minutes after drug administration. Tumors were excised 2 hrs after EP. Animals of cohort 11 were treated as those in cohort 10 except that their tumors were completely removed at 24 hrs after EP. All wounds were closed as described above. Results
With respect to cohorts 9-11, we observed that the consistency of the tumor changed progressively with time after treatment. […] At that time point surgical excision was somewhat difficult because the boundaries of the tumor were ill defined as compared to the solid tumor tissue mass of cohort 9 animals. […] These observations provide proof of the opportunity of using drug, such as Bleomycin or other anticancer agent, in combination with EPT as adjuvant or tumor debulking therapy that can additionally be used alone or in conjunction with other cancer therapies. For example, a tumor could be treated with Bleomycin-EPT, the disintegrated tumor material be removed by a simple minimally invasive procedure, and if desired, followed by conventional treatments such as radiation or chemotherapy, or other tumor therapy modalities. Easy removal of the liquefied tumor material can also allow the wound to heal faster and with fewer complications, especially in the case of large tumors.

[5] = system: HT-29 human colon carcinoma cells; conditions: stated as known, not tested; cited from earlier work

Bleomycin
reduction of breaking strength of skin incisions compared to non-Bleomycin groups ([1]; 1 week post-incision, all three Bleomycin treated groups (with or without EP)): 90% | wound strength (breaking point), difference between saline and Bleomycin with or without EP ([1]; three weeks post incision, FIG. 1): no substantial difference | breaking strength of skin incisions, difference between groups ([1]; week 2, longitudinal incisions, Bleomycin with or without EP (Groups 4, 5) vs Groups 1-3): no significant differences between Groups 1-5 | breaking strength of skin incisions, difference between groups ([1]; week 3, Group 6, transverse incisions with Bleomycin and EP vs Groups 1-5): significantly lower breaking strength | muscle necrosis, Bleomycin plus EP vs Bleomycin ([2]; 2 weeks, difference disappeared by 3 weeks): significant increase in muscle necrosis | histological changes ([2]; day 7, Bleomycin groups): statistically significant changes | histology compared with controls ([2]; day 21, all Bleomycin injected samples): comparable with saline-injected controls | % efficacy (animals that did NOT experience tumor growth post treatment) ([3]; Group 1: complete tumor excision, Bleomycin i.v., EP): 90% | tumor recurrence at the site of treatment ([3]; Group 1: complete tumor removal, Bleomycin-EP, 3 weeks post treatment (FIG. 12)): no tumor recurred | % efficacy (animals that did NOT experience tumor growth post treatment) ([3]; Group 3: partial tumor excision, Bleomycin i.v., EP): 67% | % efficacy (animals that did NOT experience tumor growth post treatment) ([3]; Group 5: Bleomycin intratumoral, EP, complete tumor excision 15 minutes later): 100% | % efficacy (animals that did NOT experience tumor growth post treatment) ([3]; Group 6: no tumor excision, Bleomycin intratumoral, EP): 80% | % efficacy (animals that did NOT experience tumor growth post treatment) ([3]; Group 7: Bleomycin intratumoral, EP, partial tumor excision 15 minutes later): 100% | tumor recurrence ([3]; Group 7: partial tumor removal, Bleomycin i.t. and EP, 3 weeks (FIG. 13)): no tumor recurrence | % efficacy (animals that did NOT experience tumor growth post treatment) ([3]; Group 8: no tumor excision, Bleomycin intratumoral, partial (off-centered) EP): 67% | tumor recurrence ([3]; cohorts 5 and 7: Bleomycin i.t. and EP, excision 15 minutes after treatment): no tumor recurrence | consistency of the tumor ([4]; cohort 10: excised two hours after i.t. Bleomycin-EP): softer, less well defined | consistency of the tumor ([4]; cohort 11: excised 24 hrs after i.t. Bleomycin-EP): completely softened | consistency of the tumor ([4]; cohorts 5 and 7: removed 15 minutes after i.t. Bleomycin-EP): softening of the tumor | antitumoral activity of Bleomycin administration without EP [5]: no significant antitumoral activity
